In ChEMBL document CHEMBL5233274, “Current Landscape and Future Perspective of Oxazolidinone Scaffolds Containing Antibacterial Drugs” (J Med Chem, 2021):
≈ marks a conversion by molar mass, not a printed value. Where “and” joins values, the source holds several entries; their conditions need not be identical. Equal entries are not always repeated.

Tests used:
Format in all cases: functional
[1] = test system: Staphylococcus aureus; assay: Antibacterial activity against linezolid and methicillin-resistant Staphylococcus aureus assessed as inhibition of bacterial growth
[2] = test system: Enterococcus; assay: Antibacterial activity against linezolid and vancomycin-resistant Enterococcus assessed as inhibition of bacterial growth
[3] = test system: Candida albicans; assay: Antifungal activity against Candida albicans NCIM 3628 assessed as inhibition of fungal growth incubated for 48 hrs by serial dilution method
[4] = test system: Bacillus subtilis; assay: Antibacterial activity against Bacillus subtilis NCIM 2097 assessed as inhibition of bacterial growth incubated for 24 hrs by serial broth dilution method
[5] = test system: Aspergillus niger; assay: Antifungal activity against Aspergillus niger NCIM 1317 assessed as inhibition of fungal growth incubated for 48 hrs by serial dilution method
[6] = test system: Escherichia coli; assay: Antibacterial activity against Escherichia coli NCIM 2065 assessed as inhibition of bacterial growth incubated for 24 hrs by serial dilution method
[7] = test system: Staphylococcus aureus; assay: Antibacterial activity against Staphylococcus aureus NCIM 5257 assessed as inhibition of bacterial growth incubated for 24 hrs by serial broth dilution method
[8] = test system: Enterococcus faecalis; assay: Antibacterial activity against Streptococcus faecalis NCIM 2080 assessed as inhibition of bacterial growth incubated for 24 hrs by serial dilution method
[9] = test system: Pseudomonas aeruginosa; assay: Antibacterial activity against Pseudomonas aeruginosa NCIM 5210 assessed as inhibition of bacterial growth incubated for 24 hrs by serial dilution method
[10] = test system: Klebsiella pneumoniae; assay: Antibacterial activity against Klebsiella pneumoniae NCIM 5289 assessed as inhibition of bacterial growth incubated for 24 hrs by serial dilution method
[11] = test system: Bacillus subtilis; assay: Antibacterial activity against Bacillus subtilis assessed as inhibition of bacterial growth measured per 100 uL incubated for 24 hrs by agar well diffusion method
[12] = test system: Candida albicans; assay: Antifungal activity against Candida albicans assessed as inhibition of fungal growth incubated measured per 100 uL incubated for 24 hrs by agar well diffusion method
[13] = test system: Escherichia coli; assay: Antibacterial activity against Escherichia coli assessed as inhibition of bacterial growth measured per 100 uL incubated for 24 hrs by agar well diffusion method
[14] = test system: Saccharomyces cerevisiae; assay: Antifungal activity against Saccharomyces cerevisiae assessed as inhibition of fungal growth incubated measured per 100 uL incubated for 24 hrs by agar well diffusion method
[15] = test system: Staphylococcus aureus; assay: Antibacterial activity against Staphylococcus aureus assessed as inhibition of bacterial growth measured per 100 uL incubated for 24 hrs by agar well diffusion method
[16] = test system: Pseudomonas aeruginosa; assay: Antibacterial activity against Pseudomonas aeruginosa assessed as inhibition of bacterial growth measured per 100 uL incubated for 24 hrs by agar well diffusion method
[17] = test system: Pseudomonas aeruginosa; assay: Antibacterial activity against Pseudomonas aeruginosa assessed as inhibition of bacterial growth incubated for 18 hrs by CLSI protocol based method
[18] = test system: Escherichia coli; assay: Antibacterial activity against Escherichia coli assessed as inhibition of bacterial growth incubated for 18 hrs by CLSI protocol based method
[19] = test system: Fusarium oxysporum; assay: Antimicrobial activity against Fusarium oxysporum assessed as inhibition zone at 200 ug/ml incubated for 24 hrs by disk diffusion method; details: read-out: IZ
[20] = test system: Escherichia coli; assay: Antimicrobial activity against Escherichia coli assessed as inhibition zone at 200 ug/ml incubated for 24 hrs by disk diffusion method; details: read-out: IZ
[21] = test system: Bacillus subtilis; assay: Antimicrobial activity against Bacillus subtilis assessed as inhibition zone at 200 ug/ml incubated for 24 hrs by disk diffusion method; details: read-out: IZ
[22] = test system: Pseudomonas aeruginosa; assay: Antibacterial activity against Pseudomonas aeruginosa assessed as inhibition of bacterial growth by CLSI protocol based microdilution assay
[23] = test system: Escherichia coli; assay: Antibacterial activity against Escherichia coli assessed as zone of inhibition at 100 ug/ml; details: read-out: IZ
[24] = test system: Bacillus subtilis; assay: Antibacterial activity against Bacillus subtilis assessed as zone of inhibition at 100 ug/ml; details: read-out: IZ
[25] = test system: Staphylococcus aureus; assay: Antibacterial activity against Staphylococcus aureus assessed as fold increase relative to linezolid
[26] = test system: Streptococcus sp.; assay: Antibacterial activity against wild-type Streptococcus sp. by broth dilution assay
[27] = test system: Staphylococcus aureus; assay: Antibacterial activity against methicillin-resistant Staphylococcus aureus WIS 441 infected in Galleria mellonella larvae incubated for 6 days; details: time 6 day
[28] = test system: Enterococcus; assay: Antibacterial activity against Enterococcus assessed as fold increase relative to linezolid
[29] = test system: Streptococcus sp.; assay: Antibacterial activity against wild-type beta-hemolytic Streptococcus sp. by broth dilution assay
[30] = test system: Streptococcus sp.; assay: Antibacterial activity against linezolid-resistant Streptococcus sp. by broth dilution assay
[31] = test system: Enterococcus faecalis; assay: Antibacterial activity against Enterococcus faecalis ATCC 29212 assessed as inhibition of bacterial growth by CLSI protocol based microdilution assay
[32] = test system: Enterococcus faecalis; assay: Antibacterial activity against Enterococcus faecalis ATCC 51299 assessed as inhibition of bacterial growth by CLSI protocol based microdilution assay
[33] = test system: Listeria monocytogenes; assay: Antibacterial activity against Listeria monocytogenes assessed as inhibition of bacterial growth by CLSI protocol based microdilution assay
[34] = test system: Staphylococcus aureus; assay: Antibacterial activity against Staphylococcus aureus assessed as inhibition of bacterial growth by CLSI protocol based microdilution assay

O=C(NC[C@H]1CN(c2ccc(N3CCOCC3)c(F)c2)C(=O)O1)C(Cl)Cl
MIC [1]: 0.25 µg/mL (≈ 0.615 µM)
MIC [2]: 0.25 µg/mL (≈ 0.615 µM)

O=C(/C=C/c1ccc(F)cc1)c1ccc(-c2ccc(N3C[C@H](CO)OC3=O)cc2)cc1
MIC [3]: 12.5 µg/mL (≈ 29.9 µM)
MIC [4]: 3.12 µg/mL (≈ 7.49 µM)
MIC [5]: 12.5 µg/mL (≈ 29.9 µM)
MIC [6]: 3.12 µg/mL (≈ 7.49 µM)
MIC [7]: 3.12 µg/mL (≈ 7.49 µM)
MIC [8]: 3.12 µg/mL (≈ 7.49 µM)
MIC [9]: 3.12 µg/mL (≈ 7.49 µM)
MIC [10]: 3.12 µg/mL (≈ 7.49 µM)

O=C1NC(Cc2ccc(Nc3nc(-c4ccc(F)cc4)cs3)cc2)CO1 (stereo unspecified)
MIC [11]: 12.5 µg
MIC [12]: 12.5 µg
MIC [13]: 12.5 µg
MIC [14]: 12.5 µg
MIC [15]: 12.5 µg
MIC [16]: 12.5 µg

Nc1ccc(C#CC#Cc2ccc(N3C[C@@H](C(=O)NO)OC3=O)cc2)cc1
MIC [17]: > 10 µg/mL
MIC [18]: 0.02 µg/mL (≈ 0.0553 µM)

COc1ccc(/C=C2\OC3(COC(=O)N3)N(CCCNc3ccnc4cc(Cl)ccc34)C2=O)cc1 (stereo unspecified)
zone of inhibition at 200 µg/mL [19]: 9 mm
zone of inhibition at 200 µg/mL [20]: 11 mm
zone of inhibition at 200 µg/mL [21]: 10 mm

CS(=O)(=O)CCOc1ccc(C#Cc2ccc(N3C[C@@H](C(=O)NO)OC3=O)cc2)cc1
MIC [17]: > 10 µg/mL
MIC [18]: 50 µg/mL (≈ 112 µM)

O=C(CCl)NC[C@H]1CN(c2ccc(N3CCOCC3)c(F)c2)C(=O)O1
MIC [1]: 0.13 µg/mL (≈ 0.35 µM)
MIC [2]: 0.13 µg/mL (≈ 0.35 µM)

CS(=O)(=O)CCCOc1ccc(C#Cc2ccc(N3C[C@@H](C(=O)NO)OC3=O)cc2)cc1
MIC [17]: > 10 µg/mL
MIC [18]: 6.25 µg/mL (≈ 13.6 µM)

O=C1NC(Cc2ccc(Nc3nc(-c4c(O)oc(O)cc4=O)cs3)cc2)CO1 (stereo unspecified)
MIC [11]: 25 µg
MIC [12]: 12.5 µg
MIC [13]: 12.5 µg
MIC ([14]; 24 h): 12.5 µg and 6.25 µg
MIC [15]: 6.25 µg
MIC [16]: 6.25 µg

O=C1NC(Cc2ccc(Nc3nc(-c4ccc5ccccc5c4)cs3)cc2)CO1 (stereo unspecified)
MIC [11]: 25 µg
MIC [12]: 12.5 µg
MIC [13]: 12.5 µg
MIC [14]: 12.5 µg
MIC [15]: 6.25 µg
MIC [16]: 12.5 µg

O=C1NC(Cc2ccc(Nc3nc(-c4ccc(Br)cc4)cs3)cc2)CO1 (stereo unspecified)
MIC [11]: 6.25 µg
MIC [12]: 12.5 µg
MIC [13]: 12.5 µg
MIC [14]: 12.5 µg
MIC [15]: 6.25 µg
MIC [16]: 12.5 µg

COc1ccc(NC(=S)Nc2ccc(C[C@H]3COC(=O)N3)cc2)cc1
MIC [22]: 50 µg/mL (≈ 140 µM)

O=C(NO)[C@@H]1CN(c2ccc(C#CC#CC3CC3)cc2)C(=O)O1
MIC [17]: > 10 µg/mL
MIC [18]: 0.03 µg/mL (≈ 0.0967 µM)

O=C(NO)[C@@H]1CN(c2ccc(-c3ccccc3)cc2)C(=O)O1
MIC [17]: > 10 µg/mL
MIC [18]: 50 µg/mL (≈ 168 µM)

CCCN1C(=O)C(N2C(=O)OCC2Cc2ccc(/N=C/c3ccccc3)cc2)C1c1ccc(Cl)cc1Cl (stereo unspecified)
zone of inhibition at 100 µg/mL [23]: 24 mm

OC(Cn1cncn1)(Cn1cncn1)c1ccc(F)cc1F [FLUCONAZOLE]
zone of inhibition at 200 µg/mL [19]: 23 mm

O=C1NC(Cc2ccc(Nc3nc(-c4ccc(Cl)cc4)cs3)cc2)CO1 (stereo unspecified)
MIC [11]: 6.25 µg
MIC [12]: 12.5 µg
MIC [13]: 12.5 µg
MIC [14]: 12.5 µg
MIC [15]: 6.25 µg
MIC [16]: 12.5 µg

O=C1NC(Cc2ccc(Nc3nc(-c4ccc([N+](=O)[O-])cc4)cs3)cc2)CO1 (stereo unspecified)
MIC [11]: 6.25 µg
MIC [12]: 12.5 µg
MIC [13]: 12.5 µg
MIC [14]: 12.5 µg
MIC [15]: 6.25 µg
MIC [16]: 12.5 µg

O=C(/C=C/c1ccccc1F)c1ccc(-c2ccc(N3C[C@H](CO)OC3=O)cc2)cc1
MIC [3]: 12.5 µg/mL (≈ 29.9 µM)
MIC [4]: 3.12 µg/mL (≈ 7.49 µM)
MIC [5]: 12.5 µg/mL (≈ 29.9 µM)
MIC [6]: 3.12 µg/mL (≈ 7.49 µM)
MIC [7]: 3.12 µg/mL (≈ 7.49 µM)
MIC [8]: 3.12 µg/mL (≈ 7.49 µM)
MIC [9]: 3.12 µg/mL (≈ 7.49 µM)
MIC [10]: 3.12 µg/mL (≈ 7.49 µM)

O=C1NC(Cc2ccc(Nc3nc(-c4ccc(-c5ccccc5)cc4)cs3)cc2)CO1 (stereo unspecified)
MIC [11]: 6.25 µg
MIC [12]: 12.5 µg
MIC [13]: 12.5 µg
MIC [14]: 12.5 µg
MIC [15]: 6.25 µg
MIC [16]: 12.5 µg

CCCN1C(=O)C(N2C(=O)OCC2Cc2ccc(/N=C/c3ccccc3)cc2)C1c1ccc(OC)cc1OC (stereo unspecified)
zone of inhibition at 100 µg/mL [24]: 23 mm

Cn1nnc(-c2ccc(-c3ccc(N4C[C@H](CO)OC4=O)cc3F)cn2)n1 [TEDIZOLID]
fold change (FC) [25]: 4
MIC90 [26]: 0.25 µg/mL (≈ 0.675 µM)
MED [27]: 2 mg/L
fold change (FC) [28]: 4
MIC90 [29]: 0.25 µg/mL (≈ 0.675 µM)
MIC90 [30]: 8 µg/mL (≈ 21.6 µM)

O=C(N[C@H](CO)[C@H](O)c1ccc([N+](=O)[O-])cc1)C(Cl)Cl [CHLORAMPHENICOL]
MIC [31]: 50 µg/mL (≈ 155 µM)
MIC [22]: 50 µg/mL (≈ 155 µM)
MIC [32]: 50 µg/mL (≈ 155 µM)
MIC [33]: 50 µg/mL (≈ 155 µM)
MIC [34]: 50 µg/mL (≈ 155 µM)
zone of inhibition at 100 µg/mL [23]: 38 mm
zone of inhibition at 100 µg/mL [24]: 37 mm

O=C1NC(Cc2ccc(Nc3nc(-c4ccccc4F)cs3)cc2)CO1 (stereo unspecified)
MIC [11]: 12.5 µg
MIC [12]: 12.5 µg
MIC [13]: 12.5 µg
MIC [14]: 12.5 µg
MIC [15]: 12.5 µg
MIC [16]: 12.5 µg

CNS(=O)(=O)c1ccc(C#CC#Cc2ccc(N3C[C@@H](C(=O)NO)OC3=O)cc2)cc1
MIC [17]: > 10 µg/mL
MIC [18]: 0.078 µg/mL (≈ 0.177 µM)

O=C(/C=C/c1cccc(F)c1)c1ccc(-c2ccc(N3C[C@H](CO)OC3=O)cc2)cc1
MIC [3]: 12.5 µg/mL (≈ 29.9 µM)
MIC [4]: 3.12 µg/mL (≈ 7.49 µM)
MIC [5]: 12.5 µg/mL (≈ 29.9 µM)
MIC [6]: 3.12 µg/mL (≈ 7.49 µM)
MIC [7]: 3.12 µg/mL (≈ 7.49 µM)
MIC [8]: 3.12 µg/mL (≈ 7.49 µM)
MIC [9]: 3.12 µg/mL (≈ 7.49 µM)
MIC [10]: 3.12 µg/mL (≈ 7.49 µM)

O=C1N[C@@H](Cc2ccc(NC(=S)Nc3ccc(Br)cc3)cc2)CO1
MIC [31]: 25 µg/mL (≈ 61.5 µM)
MIC [32]: 25 µg/mL (≈ 61.5 µM)
MIC [33]: 25 µg/mL (≈ 61.5 µM)
MIC [34]: 25 µg/mL (≈ 61.5 µM)

O=C(NO)[C@@H]1CN(c2ccc(C#CC#Cc3ccccc3)cc2)C(=O)O1
MIC [17]: > 10 µg/mL
MIC [18]: 0.12 µg/mL (≈ 0.346 µM)

O=C(NO)[C@@H]1CN(c2ccc(C#Cc3ccccc3)cc2)C(=O)O1
MIC [17]: > 10 µg/mL
MIC [18]: 0.625 µg/mL (≈ 1.94 µM)

O=C(NO)[C@@H]1CN(c2ccc(C#CC#CC3CCCC3)cc2)C(=O)O1
MIC [17]: > 10 µg/mL
MIC [18]: 0.015 µg/mL (≈ 0.0443 µM)

O=C1NC2(CO1)O/C(=C\c1ccc([N+](=O)[O-])cc1)C(=O)N2CCCNc1ccnc2cc(Cl)ccc12 (stereo unspecified)
zone of inhibition at 200 µg/mL [19]: 14 mm
zone of inhibition at 200 µg/mL [20]: 14 mm
zone of inhibition at 200 µg/mL [21]: 14 mm
